The values below come from patent US8263606B2 (Xenon Pharmaceuticals Inc., priority 2008, dated 2012).

A value given as a limit tells only on which side of the number the result lay.

One data set has as its system sodium channel. Put plainly: Guanidine influx assay (14C-guanidine radiotracer flux, in vitro). The note with it: guanidine influx assay using a known cell line that expresses a sodium channel; activity level class. Type of data set: cell-based, human or rat. An excerpt: This example describes an in vitro assay for testing and profiling test agents against human or rat sodium channels stably expressed in cells of either an endogenous or recombinant origin. The assay is also useful for determining the IC50 of a sodium channel blocking compound. The assay is based on the guanidine flux assay described by Reddy, N. L., et al., J. Med. Chem. (1998), 41(17):3298-302.
The guanidine influx assay is a radiotracer flux assay used to determine ion flux activity of sodium channels in a high-throughput microplate-based format. The assay uses ^14C-guanidine hydrochloride in combination with various known sodium channel modulators, to assay the potency of test agents. Potency is determined by an IC50 calculation. Selectivity is determined by comparing potency of the compound for the channel of interest to its potency against other sodium channels (also called ‘selectivity profiling’).
Each of the test agents is assayed against cells that express the channels of interest. Voltage gated sodium channels are either TTX sensitive or insensitive. This property is useful when evaluating the activities of a channel of interest when it resides in a mixed population with other sodium channels. The following Table 1 summarizes cell lines useful in screening for a certain channel activity in the presence or absence of TTX.
It is also possible to employ recombinant cells expressing these sodium channels. Cloning and propagation of recombinant cells are known to those skilled in the art (see, for example, Klugbauer, N, et al., EMBO J. (1995), 14(6):1084-90; and Lossin, C., et al., Neuron (2002), 34, pp. 877-884).
Cells expressing the channel of interest are grown according to the supplier or in the case of a recombinant cell in the presence of selective growth media such as G418 (Gibco/Invitrogen). The cells are disassociated from the culture dishes with an enzymatic solution (Ix) Trypsin/EDTA (Gibco/Invitrogen) and analyzed for density and viability using haemocytometer (Neubauer). Disassociated cells are washed and resuspended in their culture media then plated into Scintiplates (Beckman Coulter Inc.) (approximately 100,000 cells/well) and incubated at 37° C./5% CO2 for 20-24 hours. After an extensive wash with Low sodium HEPES-buffered saline solution (LNHBSS) (150 mM Choline Chloride, […] (Sigma), 1 mM Calcium Chloride, 5 mM Potassium Chloride, 1 mM Magnesium Chloride, 10 mM Glucose) agents diluted with LNHBSS are added to each well. (Varying concentrations of test agent may be used). The activation/radiolabel mixture contains aconitine (Sigma) to increase the percentage of time that the sodium channels are open, and ^14C-guanidine hydrochloride (ARC) to measure flux through the voltage-gated sodium channels.
After loading the cells with test agent and activation/radiolabel mixture, the Scintiplates are incubated at ambient temperature. Following the incubation, the Scintplates are extensively washed with LNHBSS supplemented with guanidine (Sigma). The Scintiplates are dried and then counted using a Wallac MicroBeta TriLux (Perkin-Elmer Life Sciences). The ability of the test agent to block sodium channel activity is determined by comparing the amount of ^14C-guanidine present inside the cells expressing the different sodium channels.
The IC50 value of a test agent for a specific sodium channel may be determined using the above general method. […] Typically the mid-point concentration of test agent is set at 1 μM, and sequential concentrations of half dilutions greater or smaller are applied (e.g. 0.5 μM; 5 μM and 0.25 μM; 10 μM and 0.125 μM; 20 μM etc.). The IC50 curve is calculated using the 4 Parameter Logistic Model or Sigmoidal Dose-Response Model formula (fit=(A+((B−A)/(1+((C/x)^D)))).
The fold selectivity, factor of selectivity or multiple of selectivity, is calculated by dividing the IC50 value of the test sodium channel by the reference sodium channel, for example, Nav1.5. […]

Another data set addresses CYP3A4 (Homo sapiens, UniProt P08684). Put plainly: Cytochrome P450 (CYP450) Inhibition Assay, CYP3A4 (Vivid fluorescence, BOMCC substrate). The note with it: human, P450 Baculosomes (recombinant CYP3A4), probe BOMCC (Vivid substrate).

Chain of CYP3A4 (P08684 whole entry): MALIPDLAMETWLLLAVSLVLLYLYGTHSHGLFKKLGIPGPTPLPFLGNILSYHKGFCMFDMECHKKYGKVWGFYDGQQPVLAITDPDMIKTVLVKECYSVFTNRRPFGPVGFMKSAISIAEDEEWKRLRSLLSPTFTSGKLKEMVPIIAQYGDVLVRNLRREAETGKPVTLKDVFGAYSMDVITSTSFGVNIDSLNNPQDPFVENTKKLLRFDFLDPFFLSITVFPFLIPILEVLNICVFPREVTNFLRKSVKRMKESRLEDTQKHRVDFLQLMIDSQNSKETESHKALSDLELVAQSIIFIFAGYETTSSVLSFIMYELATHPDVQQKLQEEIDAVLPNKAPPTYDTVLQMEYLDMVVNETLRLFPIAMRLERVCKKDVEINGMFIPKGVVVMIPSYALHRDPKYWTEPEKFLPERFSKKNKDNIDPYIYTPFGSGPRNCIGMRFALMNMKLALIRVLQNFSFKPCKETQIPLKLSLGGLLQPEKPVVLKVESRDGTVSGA

`Cn1c(CN2C(=O)C3(COc4cc5c(cc43)CCO5)c3ccccc32)cnc1Cl` (stereo not drawn) [Example 4.2, 1′-[(2-chloro-1-methyl-1H-imidazol-5-yl)methyl]-5,6-dihydrospiro[benzo[1,2-b:5,4-b′]difuran-3,3′-indol]-2′(1′H)-one]: the IC50 – broadly, the concentration needed to halve the response being measured – with sodium channel was in the range of 0.001 to 0.1 µM. Besides, the inhibition (commonly the share of the control response that was lost under treatment) at 10 µM at CYP3A4 is more than 50%.

As for `CC(C)CCN1C(=O)C2(COc3cc4c(cc32)CCO4)c2ccccc21` (stereo not drawn) [Example 4.4, 1′-(3-methylbutyl)-5,6-dihydrospiro[benzo[1,2-b:5,4-b′]difuran-3,3′-indol]-2′(1′H)-one], in the data set on sodium channel, the IC50 is 0.001 to 0.1 µM. Also, the inhibition at 10 µM at CYP3A4 was more than 50%.

Regarding `O=C1N(C[C@@H]2CCCO2)c2ccccc2C12COc1cc3c(cc12)CCO3` (stereo partly drawn) [Example 4.5, 1′-[(2S)-tetrahydrofuran-2-ylmethyl]-5,6-dihydrospiro[benzo[1,2-b:5,4-b′]difuran-3,3′-indol]-2′(1′H)-one], in the data set on sodium channel, the 50% inhibitory concentration (IC50) lay in the range of 0.001 to 0.1 µM. Also, at CYP3A4, the inhibition at 10 µM is less than 50%.

Take `COC(=O)c1ccc(CN2C(=O)C3(COc4cc5c(cc43)CCO5)c3ccccc32)o1` (stereo not drawn) [Example 4.7, methyl 5-[(2′-oxo-5,6-dihydrospiro[benzo[1,2-b:5,4-b′]difuran-3,3′-indol]-1′(2′H)-yl)methyl]furan-2-carboxylate]: the IC50 with sodium channel was 0.001 to 0.1 µM. In addition, at CYP3A4, the inhibition at 10 µM is more than 50%.

As for `Cn1cc(CN2C(=O)C3(COc4cc5c(cc43)CCO5)c3ccccc32)c(C(F)(F)F)n1` (stereo not drawn) [Example 4.9, 1′-{[1-methyl-3-(trifluoromethyl)-1H-pyrazol-4-yl]methyl}-5,6-dihydrospiro[benzo[1,2-b:5,4-b′]difuran-3,3′-indol]-2′(1′H)-one], in the data set on sodium channel, the IC50 lay in the range of 0.1 to 1 µM. The inhibition at 10 µM on CYP3A4 is more than 50%.

For `COC(=O)c1coc(CN2C(=O)C3(COc4cc5c(cc43)CCO5)c3ccccc32)n1` (stereo not drawn) [Example 4.11, methyl 2-[(2′-oxo-5,6-dihydrospiro[benzo[1,2-b:5,4-b′]difuran-3,3′-indol]-1′(2′H)-yl)methyl]-1,3-oxazole-4-carboxylate], the IC50 with sodium channel lay in the range of 0.001 to 0.1 µM. In addition, the inhibition at 10 µM at CYP3A4 is less than 50%.

As to `O=C1N(Cc2ccccc2F)c2ccccc2C12COc1cc3c(cc12)CCO3` (stereo not drawn) [Example 4.12, 1′-(2-fluorobenzyl)-5,6-dihydrospiro[benzo[1,2-b:5,4-b′]difuran-3,3′-indol]-2′(1′H)-one], the IC50 in the data set with sodium channel was 0.001 to 0.1 µM. Moreover, the inhibition at 10 µM at CYP3A4 is less than 50%.

Take `O=C1N(Cc2ccc(F)cc2)c2ccccc2C12COc1cc3c(cc12)CCO3` (stereo not drawn) [Example 4.13, 1′-(4-fluorobenzyl)-5,6-dihydrospiro[benzo[1,2-b:5,4-b′]difuran-3,3′-indol]-2′(1′H)-one]: the IC50 in the data set on sodium channel is 0.001 to 0.1 µM. The inhibition at 10 µM at CYP3A4 was more than 50%.

Regarding `O=C1N(Cc2ccccc2)c2ccccc2C12COc1cc3c(cc12)CCO3` (stereo not drawn) [Example 4.14, 1′-benzyl-5,6-dihydrospiro[benzo[1,2-b:5,4-b′]difuran-3,3′-indol]-2′(1′H)-one], in the data set with sodium channel, the IC50 was 0.001 to 0.1 µM. Also, the inhibition at 10 µM on CYP3A4 was more than 50%.

Regarding `O=C1N(Cc2ccc(-c3ccccc3)cc2)c2ccccc2C12COc1cc3c(cc12)CCO3` (stereo not drawn) [Example 4.15, 1′-(biphenyl-4-ylmethyl)-5,6-dihydrospiro[benzo[1,2-b:5,4-b′]difuran-3,3′-indol]-2′(1′H)-one], in the data set on sodium channel, the IC50 lay within 0.001 to 0.1 µM. Besides, the inhibition at 10 µM on CYP3A4 was less than 50%.

As to `O=C1N(Cc2cc(Br)no2)c2ccccc2C12COc1cc3c(cc12)CCO3` (stereo not drawn) [Example 4.17, 1-[(3-bromoisoxazol-5-yl)methyl]-5,6-dihydrospiro[benzo[1,2-b:5,4-b′]difuran-3,3′-indol]-2′(1′H)-one], the IC50 in the data set with sodium channel was 0.001 to 0.1 µM. In addition, the inhibition at 10 µM at CYP3A4 was more than 50%.

Consider `O=C1N(Cc2ccc(Br)o2)c2ccccc2C12COc1cc3c(cc12)CCO3` (stereo not drawn) [Example 4.18, 1′-[(5-bromofuran-2-yl)methyl]-5,6-dihydrospiro[benzo[1,2-b:5,4-b′]difuran-3,3′-indol]-2′(1′H)-one], for which the IC50 in the data set with sodium channel lay within 0.001 to 0.1 µM. Also, the inhibition at 10 µM at CYP3A4 is more than 50%.
